# Experimental data published in US10167262B2, “Herbicidal substituted 3-arylpyrazoles” (FMC CORPORATION, priority 2014, dated 2019).
# Experiments:
# Experiment in all cases: Test E pre-/postemergence greenhouse test, plant response rating 0-100
# Format in all cases: in vivo
# [1] = tested on: corn (Zea mays); settings: scale 0 to 100; for Corn plant response rating: Preemergence
# Procedure, shortened: (§1)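 Visual control score, 0–100 relative to untreated plants, recorded 14–21 days after spraying. Treatments: preemergence on silt loam seedbeds and postemergence at the 1- to 4-leaf stage, with compound in surfactant-containing solvent.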
# [2] = tested on: sandbur (southern sandbur, Cenchrus echinatus); settings: scale 0 to 100; for Sandbur plant response rating: Preemergence
# Procedure, shortened: as §1
# [3] = tested on: palmer pigweed (Amaranthus palmeri); settings: scale 0 to 100; for Pigweed, Palmer plant response rating: Preemergence
# Procedure, shortened: as §1
# [4] = tested on: barnyardgrass (Echinochloa crus-galli); settings: scale 0 to 100; for Barnyardgrass plant response rating: Preemergence
# Procedure, shortened: as §1
# [5] = tested on: field bindweed (Convolvulus arvensis); settings: scale 0 to 100; for Field Bindweed plant response rating: Preemergence
# Procedure, shortened: as §1
# [6] = tested on: dayflower (Virginia (VA) dayflower, Commelina virginica); settings: scale 0 to 100; for Dayflower, VA plant response rating: Preemergence
# Procedure, shortened: as §1
# [7] = tested on: arrowleaf sida (Sida rhombifolia); settings: scale 0 to 100; for pest or weed control at 16 g/ha: 16 g ai/ha; for pest or weed control at 31 g/ha: 31 g ai/ha; for Arrowleaf Sida plant response rating: Preemergence
# Procedure, shortened: as §1
# [8] = tested on: waterhemp (common waterhemp, Amaranthus rudis); settings: scale 0 to 100; for pest or weed control at 31 g/ha: 31 g ai/ha; for Waterhemp plant response rating: Preemergence
# Procedure, shortened: as §1
# [9] = tested on: soybean (Glycine max); settings: scale 0 to 100; for Soybean plant response rating: Preemergence
# Procedure, shortened: as §1
# [10] = tested on: hairy beggarticks (Bidens pilosa); settings: scale 0 to 100; for pest or weed control at 16 g/ha: 16 g ai/ha; for Beggarticks plant response rating: Preemergence
# Procedure, shortened: as §1
# [11] = tested on: fall panicum (Panicum dichotomiflorum); settings: scale 0 to 100; for Panicum, Fall plant response rating: Preemergence
# Procedure, shortened: as §1
# [12] = tested on: Brazilian crabgrass (Digitaria horizontalis); settings: scale 0 to 100; for Crabgrass, Brazil plant response rating: Preemergence
# Procedure, shortened: as §1
# [13] = Amaranthus palmeri, post-emergence, Postemergence, 62 g ai/ha
# [14] = Amaranthus palmeri, post-emergence, Postemergence, 125 g ai/ha
# [15] = Sida rhombifolia, post-emergence, Postemergence
# [16] = Sida rhombifolia, post-emergence, Postemergence, 62 g ai/ha
# [17] = Sida rhombifolia, post-emergence, Postemergence, 125 g ai/ha
# [18] = Amaranthus tuberculatus, post-emergence, Postemergence
# [19] = Amaranthus tuberculatus, post-emergence, Postemergence, 125 g ai/ha
# [20] = Bidens pilosa, post-emergence, Postemergence
# [21] = Bidens pilosa, post-emergence, Postemergence, 125 g ai/ha
smiles,measurement,setting,value
"Clc1cc(Cl)cc(-c2n[nH]cc2C(=NN2CCCC2)c2ccccc2)c1 [Compound 30, N-[[3-(3,5-dichlorophenyl)-1H-pyrazol-4-yl]phenylmethylene]-1-pyrrolidinamine]","Corn plant response rating (crop injury, 0 = no effect, 100 = complete kill) at 16 g/ha","[1]; Zea mays, post-emergence, Postemergence, 16 g ai/ha",0%
same,"Corn plant response rating (crop injury, 0 = no effect, 100 = complete kill) at 31 g/ha","[1]; Zea mays, post-emergence, Postemergence, 31 g ai/ha",0%
same,"Corn plant response rating (crop injury, 0 = no effect, 100 = complete kill) at 62 g/ha","[1]; Zea mays, post-emergence, Postemergence, 62 g ai/ha",0%
same,"Corn plant response rating (crop injury, 0 = no effect, 100 = complete kill) at 125 g/ha","[1]; Zea mays, post-emergence, Postemergence, 125 g ai/ha",0%
same,"Corn plant response rating (crop injury, 0 = no effect, 100 = complete kill) at 250 g/ha","[1]; Zea mays, post-emergence, Postemergence, 250 g ai/ha",0%
same,pest or weed control at 31 g/ha,"[2]; Cenchrus echinatus, post-emergence, Postemergence, 31 g ai/ha",0%
same,pest or weed control at 62 g/ha,"[2]; Cenchrus echinatus, post-emergence, Postemergence, 62 g ai/ha",0%
same,pest or weed control at 125 g/ha,"[2]; Cenchrus echinatus, post-emergence, Postemergence, 125 g ai/ha",0%
same,pest or weed control at 250 g/ha,"[2]; Cenchrus echinatus, post-emergence, Postemergence, 250 g ai/ha",0%
same,pest or weed control at 31 g/ha,"[3]; Amaranthus palmeri, post-emergence, Postemergence, 31 g ai/ha",40%
same,pest or weed control at 62 g/ha,[3]; [13],100%
same,pest or weed control at 125 g/ha,[3]; [14],100%
same,pest or weed control at 250 g/ha,"[3]; Amaranthus palmeri, post-emergence, Postemergence, 250 g ai/ha",100%
same,pest or weed control at 16 g/ha,"[4]; Echinochloa crus-galli, post-emergence, Postemergence, 16 g ai/ha",0%
same,pest or weed control at 31 g/ha,"[4]; Echinochloa crus-galli, post-emergence, Postemergence, 31 g ai/ha",0%
same,pest or weed control at 62 g/ha,"[4]; Echinochloa crus-galli, post-emergence, Postemergence, 62 g ai/ha",0%
same,pest or weed control at 125 g/ha,"[4]; Echinochloa crus-galli, post-emergence, Postemergence, 125 g ai/ha",0%
same,pest or weed control at 250 g/ha,"[4]; Echinochloa crus-galli, post-emergence, Postemergence, 250 g ai/ha",0%
same,pest or weed control at 16 g/ha,"[5]; Convolvulus arvensis, post-emergence, Postemergence, 16 g ai/ha",0%
same,pest or weed control at 31 g/ha,"[5]; Convolvulus arvensis, post-emergence, Postemergence, 31 g ai/ha",0%
same,pest or weed control at 62 g/ha,"[5]; Convolvulus arvensis, post-emergence, Postemergence, 62 g ai/ha",0%
same,pest or weed control at 125 g/ha,"[5]; Convolvulus arvensis, post-emergence, Postemergence, 125 g ai/ha",0%
same,pest or weed control at 250 g/ha,"[5]; Convolvulus arvensis, post-emergence, Postemergence, 250 g ai/ha",0%
same,pest or weed control at 16 g/ha,"[6]; Commelina virginica, post-emergence, Postemergence, 16 g ai/ha",0%
same,pest or weed control at 31 g/ha,"[6]; Commelina virginica, post-emergence, Postemergence, 31 g ai/ha",0%
same,pest or weed control at 62 g/ha,"[6]; Commelina virginica, post-emergence, Postemergence, 62 g ai/ha",0%
same,pest or weed control at 125 g/ha,"[6]; Commelina virginica, post-emergence, Postemergence, 125 g ai/ha",0%
same,pest or weed control at 250 g/ha,"[6]; Commelina virginica, post-emergence, Postemergence, 250 g ai/ha",0%
same,pest or weed control at 16 g/ha,[7]; [15],50%
same,pest or weed control at 31 g/ha,[7]; [15],50%
same,pest or weed control at 62 g/ha,[7]; [16],70%
same,pest or weed control at 125 g/ha,[7]; [17],80%
same,pest or weed control at 250 g/ha,"[7]; Sida rhombifolia, post-emergence, Postemergence, 250 g ai/ha",80%
same,pest or weed control at 31 g/ha,[8]; [18],60%
same,pest or weed control at 62 g/ha,"[8]; Amaranthus tuberculatus, post-emergence, Postemergence, 62 g ai/ha",70%
same,pest or weed control at 125 g/ha,[8]; [19],70%
same,pest or weed control at 250 g/ha,"[8]; Amaranthus tuberculatus, post-emergence, Postemergence, 250 g ai/ha",75%
same,plant injury at 31 g/ha,"[9]; Glycine max, post-emergence, Postemergence, 31 g ai/ha",0%
same,plant injury at 62 g/ha,"[9]; Glycine max, post-emergence, Postemergence, 62 g ai/ha",0%
same,plant injury at 125 g/ha,"[9]; Glycine max, post-emergence, Postemergence, 125 g ai/ha",0%
same,plant injury at 250 g/ha,"[9]; Glycine max, post-emergence, Postemergence, 250 g ai/ha",0%
same,pest or weed control at 16 g/ha,[10]; [20],80%
same,pest or weed control at 125 g/ha,[10]; [21],85%
same,pest or weed control at 250 g/ha,"[10]; Bidens pilosa, post-emergence, Postemergence, 250 g ai/ha",100%
same,pest or weed control at 31 g/ha,"[11]; Panicum dichotomiflorum, post-emergence, Postemergence, 31 g ai/ha",0%
same,pest or weed control at 62 g/ha,"[11]; Panicum dichotomiflorum, post-emergence, Postemergence, 62 g ai/ha",0%
same,pest or weed control at 125 g/ha,"[11]; Panicum dichotomiflorum, post-emergence, Postemergence, 125 g ai/ha",0%
same,pest or weed control at 250 g/ha,"[11]; Panicum dichotomiflorum, post-emergence, Postemergence, 250 g ai/ha",0%
same,pest or weed control at 16 g/ha,"[12]; Digitaria horizontalis, post-emergence, Postemergence, 16 g ai/ha, read-out: Plant response rating, Crabgrass, Brazil",0%
same,pest or weed control at 31 g/ha,"[12]; Digitaria horizontalis, post-emergence, Postemergence, 31 g ai/ha, read-out: Plant response rating, Crabgrass, Brazil",0%
same,pest or weed control at 62 g/ha,"[12]; Digitaria horizontalis, post-emergence, Postemergence, 62 g ai/ha, read-out: Plant response rating, Crabgrass, Brazil",0%
same,pest or weed control at 125 g/ha,"[12]; Digitaria horizontalis, post-emergence, Postemergence, 125 g ai/ha, read-out: Plant response rating, Crabgrass, Brazil",0%
same,pest or weed control at 250 g/ha,"[12]; Digitaria horizontalis, post-emergence, Postemergence, 250 g ai/ha, read-out: Plant response rating, Crabgrass, Brazil",0%
"CCn1cc(C(=O)c2ccccc2)c(-c2cc(Cl)cc(Cl)c2)n1 [Compound 31, [3-(3,5-dichlorophenyl)-1-ethyl-1H-pyrazol-4-yl]phenylmethanone]",Corn plant response rating,[1]; 62 g ai/ha,0
same,Corn plant response rating,[1]; 125 g ai/ha,0
same,Corn plant response rating,[1]; 250 g ai/ha,0
same,Corn plant response rating,[1]; 500 g ai/ha,0
same,Sandbur plant response rating,[2]; 62 g ai/ha,0
same,Sandbur plant response rating,[2]; 125 g ai/ha,0
same,Sandbur plant response rating,[2]; 250 g ai/ha,0
same,Sandbur plant response rating,[2]; 500 g ai/ha,0
same,pest or weed control at 62 g/ha,[3]; [13],60%
same,pest or weed control at 125 g/ha,[3]; [14],75%
same,"Pigweed, Palmer plant response rating",[3]; 62 g ai/ha,0
same,"Pigweed, Palmer plant response rating",[3]; 125 g ai/ha,70
same,"Pigweed, Palmer plant response rating",[3]; 250 g ai/ha,98
same,"Pigweed, Palmer plant response rating",[3]; 500 g ai/ha,100
same,Barnyardgrass plant response rating,[4]; 62 g ai/ha,0
same,Barnyardgrass plant response rating,[4]; 125 g ai/ha,0
same,Barnyardgrass plant response rating,[4]; 250 g ai/ha,0
same,Barnyardgrass plant response rating,[4]; 500 g ai/ha,0
same,Field Bindweed plant response rating,[5]; 62 g ai/ha,0
same,Field Bindweed plant response rating,[5]; 125 g ai/ha,0
same,Field Bindweed plant response rating,[5]; 250 g ai/ha,0
same,Field Bindweed plant response rating,[5]; 500 g ai/ha,0
same,"Dayflower, VA plant response rating",[6]; 62 g ai/ha,0
same,"Dayflower, VA plant response rating",[6]; 125 g ai/ha,0
same,"Dayflower, VA plant response rating",[6]; 250 g ai/ha,0
same,"Dayflower, VA plant response rating",[6]; 500 g ai/ha,0
same,Arrowleaf Sida plant response rating,[7]; 62 g ai/ha,30
same,Arrowleaf Sida plant response rating,[7]; 125 g ai/ha,80
same,Arrowleaf Sida plant response rating,[7]; 250 g ai/ha,90
same,Arrowleaf Sida plant response rating,[7]; 500 g ai/ha,95
same,pest or weed control at 16 g/ha,[7]; [15],55%
same,pest or weed control at 31 g/ha,[7]; [15],65%
same,pest or weed control at 62 g/ha,[7]; [16],80%
same,pest or weed control at 125 g/ha,[7]; [17],90%
same,pest or weed control at 31 g/ha,[8]; [18],50%
same,pest or weed control at 125 g/ha,[8]; [19],60%
same,Waterhemp plant response rating,[8]; 62 g ai/ha,80
same,Waterhemp plant response rating,[8]; 125 g ai/ha,90
same,Waterhemp plant response rating,[8]; 250 g ai/ha,100
same,Waterhemp plant response rating,[8]; 500 g ai/ha,100
same,Soybean plant response rating,[9]; 62 g ai/ha,0
same,Soybean plant response rating,[9]; 125 g ai/ha,0
same,Soybean plant response rating,[9]; 250 g ai/ha,0
same,Soybean plant response rating,[9]; 500 g ai/ha,0
same,pest or weed control at 16 g/ha,[10]; [20],70%
same,pest or weed control at 31 g/ha,"[10]; Bidens pilosa, post-emergence, Postemergence, 31 g ai/ha",80%
same,pest or weed control at 62 g/ha,"[10]; Bidens pilosa, post-emergence, Postemergence, 62 g ai/ha",85%
same,pest or weed control at 125 g/ha,[10]; [21],85%
same,Beggarticks plant response rating,[10]; 62 g ai/ha,0
same,Beggarticks plant response rating,[10]; 125 g ai/ha,0
same,Beggarticks plant response rating,[10]; 250 g ai/ha,0
same,Beggarticks plant response rating,[10]; 500 g ai/ha,50
same,"Panicum, Fall plant response rating",[11]; 62 g ai/ha,0
same,"Panicum, Fall plant response rating",[11]; 125 g ai/ha,0
same,"Crabgrass, Brazil plant response rating",[12]; 62 g ai/ha,0
same,"Crabgrass, Brazil plant response rating",[12]; 125 g ai/ha,0
same,"Crabgrass, Brazil plant response rating",[12]; 250 g ai/ha,0
same,"Crabgrass, Brazil plant response rating",[12]; 500 g ai/ha,50
